A short description of assay [1]: Bronchodilator responsiveness (FEV1 reversal with albuterol). The assay is classed as in vivo, human. The source says:
(§1) Study subjects. Thirty-nine adult asthmatics were enrolled in this study. […] Patients completed asthma questionnaires (ACQ) to assess their asthma control. […] Twelve healthy nonatopic subjects underwent bronchoscopy as controls. Smokers were excluded from participation in this study. Informed consent was obtained from all study participants before enrollment in this study.
26 adult asthma patients were enrolled. Sample collection involved assessment of patients with a clinical history of asthma, airflow limitation (baseline FEV1≤85% predicted) and either airway hyperresponsiveness (PC20 methacholine<8 mg/ml) or bronchodilator responsiveness (>12% improvement in FEV1% predicted after […] metered-dose inhaler albuterol).

In assay [2] the test system is peripheral blood monocytes from asthmatics. Description: Effects of inhibitors on MKP-1 and IL-8 mRNA induction by H. parainfluenzae and on cellular response to corticosteroids (real time PCR). The assay is classed as cell-based, human. The note with it: for cellular sensitivity to corticosteroids in vitro (MKP-1 mRNA induction by DEX) in the presence of H. parainfluenzae: inhibitor 1 h, bacteria 15 min, then 3 h DEX, FIG. 4C; for MKP-1 mRNA induction by H. parainfluenzae / IL-8 mRNA induction by H. parainfluenzae: monocytes preincubated with inhibitor 1 h (TAK1 inhibitor 2 μM, others 10 μM); for MKP-1 mRNA induction by H. parainfluenzae: bacteria to cell ratio 1:1, FIG. 4A; for IL-8 mRNA induction by H. parainfluenzae: bacteria to cell ratio 1:1, FIG. 4B. The protocol:
Cell culture and treatment. Peripheral blood mononuclear cells (PBMC) were isolated from asthma patients. Monocytes were prepared by negative selection using Human Monocyte Isolation Kit II (Milteniyi Biotech Inc., Auburn, CA). BAL macrophages were enriched by 3 h plastic adhesion. Cell purity was ≥95%. In all experiments, monocytes and BAL macrophages were cultured in the X-VIVO™ 15 serum free medium overnight; medium was replaced with X-VIVO™ 15 medium without antibiotics prior to addition of bacteria. Bacteria were added to 10^6 cells/ml in culture at 0.1 or 1 bacteria per cell.
In vitro response to corticosteroids in the presence of bacteria. 0.5×10^6 monocytes or 2.5×10^5 BAL macrophages per condition were cultured overnight in X-VIVO™ 15 media, treated with 0.1 to 1 bacteria per cell or 10 ng/ml of E. coli strain 0111: B4 LPS (Sigma-Aldrich Corp) for 15 min and stimulated with 10^−6 M dexamethasone (DEX) for an additional 3 h still in the presence of bacteria. Following incubation the cells were preserved in RLT buffer (Qiagen, Inc., Valencia, CA). RNA was extracted using RNAEASYR Mini kit (Qiagen), and analyzed by real-time PCR as previously described (Goleva E et al., J Allergy Clin Immunol 2012; 129: 687-93e1) for the expression of corticosteroid-regulated targets mitogen activated kinase phosphatase 1 (MKP-1), and IL-8. 18s RNA was measured as a house keeping gene. All primers were purchased from Applied Biosystems (Life Technologies Corporation, Carlsbad, CA). Standard curves for gene targets were generated using the fluorescent data from two-fold serial dilutions of total RNA of the highest expression sample. Quantities of each target gene in test samples were normalized to the corresponding levels of the housekeeping gene (18s RNA) in each sample. Fold induction and fold suppression by DEX of selected gene targets was calculated for cells cultured in media, with LPS or with bacteria.
The effects of inhibitors on cellular response to corticosteroids. To examine whether MAPK inhibition or transforming growth factor beta associated kinase 1 (TAK1) inhibition reverses the corticosteroid resistant response to pathogenic microbes, monocytes were pretreated with either TAK1 inhibitor (5Z)-7-Oxozeaenol, Curvularia sp. (Calbiochem, EMD Serono, Inc., Rockland, MA) (2 μM), the p38 inhibitor, SB203580 (10 μM) (Calbiochem) or the cocktail of the three MAPK inhibitors (SB203580, p38 inhibitor; PD98059, MEK1/ERK inhibitor (Invitrogen, Life Technologies, Grand Island, NY) and SP600125, JNK inhibitor (InVivogen, San Diego, CA), all at 10 μM) for 1 h prior to stimulation with bacteria and cellular response to corticosteroids was evaluated by real time PCR as described above. To assess the efficacy of inhibitors on suppression of cell activation induced by bacteria cells were pretreated with inhibitors for 1 h or cultured in media, stimulated with H. parainfluenzae for 15 min. Protein lysates were prepared as described above. ERK and hsp27 phosphorylation as downstream targets for TAK1 and p38 MAPK activation, respectively, were assessed by Western blot as described in (Zhang Y et al., J Immunol 2012, in press; Li L B et al., J Allergy Clin Immunol 2004; 114: 1059-69; Zhang Y et al., J Biol Chem 2009; 284: 24542-52).
Toll-like receptor (TLR) engagement by bacteria is the major pathway of cell activation by bacteria (Akira S, Nat Rev Immunol 2004; 4: 499-511). TAK1 phosphorylation represents a key downstream TLR signaling branching point that controls both MAPK and NFKB pathway activation in the cells (Liew F Y et al., Nat Rev Immunol 2005; 5: 446-58). To address the role of TLR signaling pathways in MAPK and TAK1 activation by H. parainfluenzae and the alteration of cellular response to corticosteroids, asthmatic peripheral blood monocytes were preincubated with/without TAK1 and MAPK inhibitors for 1 hour, stimulated with bacteria followed by treatment with DEX or medium and analyzed by real time PCR.

Another assay relates to hsp27 phosphorylation. Description: Western blot of hsp27 phosphorylation as downstream read out for p38 MAPK activation by H. parainfluenzae. The assay is classed as cell-based, human. Particulars: 10 μM inhibitor, 15 min H. para, bacteria to cell ratio 1:1, monocytes from asthma patients, FIG. 4D. As for the experimental part: (§2) P38 mitogen activated protein kinase (MAPK) stimulation by bacteria. P38 MAPK activation in response to various concentrations of pathogenic and commensal bacteria as well as time course of p38 activation in response to these bacteria was determined. Cells were stimulated with 0.1 and 1 bacteria per cell, at kinetic time frames from 15 min to 3 h (monocytes), or after 3h of stimulation with bacteria (BAL macrophages). […] Protein concentration was determined by Bradford assay and cell lysates were analyzed for p-p38 MAPK expression by Western blot as described by us earlier (Zhang Y et al., J Immunol 2012, in press).
(§3) The effects of inhibitors on cellular response to corticosteroids. […] (Calbiochem, EMD Serono, Inc., Rockland, MA) (2 μM), the p38 inhibitor, SB203580 (10 μM) (Calbiochem) or the cocktail of the three MAPK inhibitors (SB203580, p38 inhibitor; PD98059, MEK1/ERK inhibitor (Invitrogen, Life Technologies, Grand Island, NY) and SP600125, JNK inhibitor (InVivogen, San Diego, CA), all at 10 μM) for 1 h prior to stimulation with bacteria and cellular response to corticosteroids was evaluated by real time PCR as described above. […]

Assay [3] is described as follows: Clinical response to oral prednisone burst (FEV1 percent predicted). The assay is classed as in vivo, human. Particulars: for FEV1% change after Prednisone burst, (Mean ± SD): prednisone 20 mg by mouth twice daily for 7 days; for FEV1% change after Prednisone burst, (Mean ± SE): one week 40 mg/d oral prednisone.
From the text: as §1
Corticosteroid response of asthmatics was classified based on their prebronchodilator morning FEV1% predicted response to one week course of 40 mg/d oral prednisone.

In a further assay the test system is ERK phosphorylation. Nature of the assay: Western blot of ERK phosphorylation as downstream read out for TAK1 activation by H. parainfluenzae. The assay is classed as cell-based, human. Particulars: 2 μM inhibitor, 15 min H. para, bacteria to cell ratio 1:1, monocytes from asthma patients, FIG. 4D. As for the experimental part: as §2, §3

Entries after “also recorded” stand apart in the source; their conditions may differ.

In the case of `CC(C)(C)NCC(O)c1ccc(O)c(CO)c1` (centres unmarked) [Albuterol, albuterol], the “FEV1% reversal with Albuterol, (Mean ± SD)” value is recorded as 15.0 ± 9.4% in assay [1] (CR asthma, n = 29, 180 μg albuterol inhaled); 37.2 ± 24.7% in assay [1] (CS asthma, n = 10, 180 μg albuterol inhaled); 5.1 ± 2.4% in assay [1] (Normal controls, n = 12). Further, the “FEV1% reversal with Albuterol, (Mean ± SE)” value in assay [1] (SR asthma, n = 12) is reported as 13.3 ± 2.1 %; in assay [1] (SS asthma, n = 13), 41.1 ± 8.7%.
On to `C[S+]([O-])c1ccc(-c2nc(-c3ccncc3)c(-c3ccc(F)cc3)[nH]2)cc1` (centres unmarked) [P38 MAPK inhibitor, SB203580], for which, in assay [2], the “cellular sensitivity to corticosteroids in vitro (MKP-1 mRNA induction by DEX) in the presence of H. parainfluenzae” value is “failed to restore”, the “MKP-1 mRNA induction by H. parainfluenzae” value is reported as “reduced” and the “IL-8 mRNA induction by H. parainfluenzae” value is listed as “reduced”. Further, in the assay on hsp27 phosphorylation, the “hsp27 phosphorylation by H. parainfluenzae” value is “fully inhibited”.
With `C[C@]12C=CC(=O)C=C1CC[C@@H]1[C@@H]2C(=O)C[C@@]2(C)[C@H]1CC[C@]2(O)C(=O)CO` [Prednisone, prednisone], the “FEV1% change after Prednisone burst, (Mean ± SD)” value is given as −0.2±5.9% in assay [3] (CR asthma, n = 29) and 31.0±23.5% in assay [3] (CS asthma, n = 10). Also, the “FEV1% change after Prednisone burst, (Mean ± SE)” value was 0.8 ± 1.9 % in assay [3] (SR asthma, n = 12) and 42.2 ± 10.0% in assay [3] (SS asthma, n = 13).
For `COc1cc(O)c2c(c1)/C=C/C[C@H](O)[C@H](O)C(=O)/C=C\C[C@H](C)OC2=O` [TAK1 inhibitor, (5Z)-7-Oxozeaenol], in assay [2], the “cellular sensitivity to corticosteroids in vitro (MKP-1 mRNA induction by DEX) in the presence of H. parainfluenzae” value was “restoration of cellular sensitivity to corticosteroids; also recorded: steroid sensitive”, the “MKP-1 mRNA induction by H. parainfluenzae” value is given as “significant inhibition” and the “IL-8 mRNA induction by H. parainfluenzae” value is reported as “significant inhibition”. Moreover, the “ERK phosphorylation by H. parainfluenzae” value with ERK phosphorylation is reported as “fully inhibited”.

Source of the values: patent US20250003969A1, “METHODS TO IDENTIFY AND TREAT SUBJECTS HAVING CORTICOSTEROID-RESISTANT INFLAMMATORY DISEASES” (priority 2013, published 2025).
